# Results as given in US9763905B2, “Therapeutic target for the treatment of cancers and related therapies and methods” (CHILDREN'S MEDICAL CENTER CORPORATION, priority 2013, dated 2017).
# Entries after “also recorded” stand apart in the source; their conditions may differ. Like-named read-outs stand apart in the source and are kept apart here.
# Experiments:
# [1] = tested on: human foreskin fibroblast (Hs27) control cell line; assay: Cell viability assay (Cell Titer Blue), Examples 1, 3, 4; type: cell-based; conditions: DHA 25-250 μM 144 hours, GW9508 25-150 μM 72 hours, TAK-875 0-0.4 μM
# Method: (§1) The human foreskin fibroblast (Hs27) and human melanoma (A2058, A375, SK-Mel 3) cell lines were purchased from ATCC (Manassas Va.). Cells were plated in 48-well plates at a concentration of 7.5×10^3cells/well in either DMEM (Hs27, A2058, A375; Invitrogen/GIBCO, Grand Island N.Y.) or McCoy's 5a medium (SK-Mel 3; Invitrogen/GIBCO) supplemented with 10% FBS (Invitrogen/GIBCO) and incubated at 37° C. in a humidified atmosphere with 5% CO2. After 24 hours the medium was replaced with either DMEM (HS27, A2058, A375) or McCoy's 5a Medium (SK-Mel 3) containing 1% heat […] (Invitrogen/GIBCO) and 0.1% FA-free BSA (Invitrogen/GIBCO) with various concentrations of DHA (Martek, Columbia Md.) prepared in 4 μL of ETOH. DHA was provided at 25-250 μM, and in the studies that follow GW9508 was provided at 25-150 μM and TAK-875 was provided at 0-0.4 μM. Controls were treated with 4 μL of ETOH. All concentrations were tested in quadruplicate.
# (§2) Following 144 hours of DHA treatment cells were trypsinized (Trypsin-EDTA; Invitrogen/GIBCO) and viable cells were counted using an absorbance-based cell viability assay (Cell Titer Blue Cell Viability Assay; Promega, Madison Wis.). During the treatment, medium was changed at 72 hours for the DHA studies. Cell counts were reported as a percent of the control cell count.
# (§3) Human foreskin fibroblast (Hs27) and human melanoma (A2058, A375, SK-Mel 3) cell lines (ATCC, Manassas Va.) were plated in 48-well plates at a concentration of 7.5×10^3cells/well in either DMEM (Hs27, A2058, A375; Invitrogen/GIBCC, Grand Island N.Y.) or McCoy's 5a Medium (SK-Mel 3; Invitrogen/GIBCO) supplemented with 10% FBS (Invitrogen/GIBCO) and incubated at 37° C. in a humidified atmosphere with 5% CO2. After 24 hours the medium was replaced with either DMEM (HS27, A2058, A375) or McCoy's 5a Medium (SK-Mel 3) containing 1% heat inactivated-FBS (Invitrogen/GIBCO) and 0.1% FA-free BSA (Invitrogen/GIBCO) with various concentrations of GW9508 (Cayman Chemical, Ann Arbor Mich.) prepared in 4 μL of ETOH, as described in Example 1. Controls were treated with 4 μL of ETOH. All concentrations were tested in quadruplicate.
# (§4) Following 72 hours of treatment (GW9508) cells were trypsinized (Trypsin-EDTA; Invitrogen/GIBCO) and viable cells were counted using an absorbance-based cell viability assay (Cell Titer Blue Cell Viability Assay; Promega, Madison Wis.). Cell counts are reported as a percent of the control cell count.
# (§5) Given the high expression of GPR40 and the negligible expression of GPR120 by the human melanoma cells evaluated, further studies were performed using the selective, potent and orally bioavailable GPR40 agonist, TAK-875 (Selleck Chemicals) consistent with the methods disclosed in Examples 1 and 3. In particular, such studies were performed to evaluate the ability of TAK-875 to exert an inhibitory effect on human melanoma cell lines in vitro relative to a control fibroblast cell line (Hs27) and the human breast cancer cell line MCF-7, as well as to further evaluate the mechanisms via which compounds such as omega-3 fatty acids exert their cellular effects on human melanoma.
# [2] = tested on: control human foreskin fibroblast (Hs27) cell line; assay: Cell viability assay (Cell Counting Kit-8), Example 5; type: cell-based; conditions: DHA 0-250 μM, TAK-875 0-0.4 μM, 3 and 6 days
# Method: (§6) Neuroblastoma cell lines used to perform the present studies include: ShSY5Y, IMR-32, SK-NSH, SK-NAS. Melanoma cell lines used include: A2058, A375, and SK-Mel3. Medullary thyroid carcinoma cell line used includes: TT. Malignant peripheral nerve sheath tumor used includes: sNF94.3. Control cell lines used included: human foreskin fibroblast line (Hs27), breast cancer cell lines (MCF-7 and […]), human umbilical vein endothelial cells (HUVEC) and human melanocytes (HMn). ShSY5Y was cultured in MEM/F12 containing 10% heat inactivated fetal bovine serum (FBS) (Invitrogen/GIBCO, Grand Island, N.Y.). IMR-32 was cultured in MEM containing 10% FBS (Invitrogen/GIBCO). SK-NSH was cultured in RPMI-1640 containing 10% FBS (Invitrogen/GIBCO). SK-Mel 3 was cultured in McCoy's 5a containing 10% FBS (Invitrogen/GIBCO). TT was cultured in F-12K containing 10% FBS (ATCC, Manassas, Va.). […] was cultured in Leibovitz's L-15 containing 10% FBS (ATCC). HUVEC was cultured with EGM-2 Bullet Kit (Lonza, Hopkinton, Mass.). HMn were cultured in MGM-4 (Lonza). All other cell lines were cultured in DMEM with 10% FBS (Invitrogen/GIBCO). Cells were incubated at 37° C. in a humidified atmosphere with 5% CO2. Cells were plated in 96-well plates to approximately 50% confluence prior to initial treatment.
# (§7) Cells treated with the GPR40 agonist DHA had growth media that was replaced with each respective media containing 1% FBS and 0.1% FA-free BSA with varying concentrations of DHA (Cayman Chemical, Ann Arbor, Mich.) ranging from 0-250 μM solubilized in ethanol (Pharmco-Aaper, Brookfield, Conn.). Cells treated with the GPR40 agonist TAK-875 had growth media that was replaced with each respective media containing 10% FBS with varying concentration of TAK-875 (Selleck Chemicals, Houston, Tex.) ranging from 0-0.4 μM solubilized in dimethyl sulfoxide (Sigma-Aldrich, St. Louis, Mo.). Following 72 hours (TAK-875) or 144 hours (DHA) of treatment, viable cells were quantified using an absorbance-based cell viability assay (Cell Counting Kit-8, Dojindo, Kumamoto, Japan).
# [3] = tested on: A2058 human melanoma cell line; assay: Cell viability assay (Cell Titer Blue), Examples 1, 3, 4; type: cell-based; conditions: DHA 25-250 μM 144 hours, GW9508 25-150 μM 72 hours, TAK-875 0-0.4 μM
# Method: as §1, §2, §3, §4, §5
# [4] = tested on: A375 human melanoma cell line; assay: as above; type: cell-based; conditions: DHA 25-250 μM 144 hours, GW9508 25-150 μM 72 hours, TAK-875 0-0.4 μM
# Method: as §1, §2, §3, §4, §5
# [5] = tested on: SK-Mel3 human melanoma cell line; assay: as above; type: cell-based; conditions: DHA 25-250 μM 144 hours, GW9508 25-150 μM 72 hours, TAK-875 0-0.4 μM
# Method: as §1, §2, §3, §4, §5
# [6] = tested on: human breast cancer cell line MCF-7; assay: Cell viability assay, Example 4; type: cell-based; conditions: TAK-875
# [7] = tested on: human melanoma (A2058) xenograft; assay: Murine subcutaneous xenograft model of human melanoma, established tumors, oral TAK-875; type: in vivo, SCID mice; conditions: 100 mg/kg/day oral, N=7/group
# Method: The subcutaneous murine xenograft model of human melanoma was created in 6-week old severe combined immunodeficiency (SCID) mice (Jackson Laboratories, Bar Harbor, Me.) by subcutaneous injection of 1×10^6 human melanoma cells (A2058) in […] of PBS (Invitrogen/GIBCC) into the left flank of each animal. Animal weights and tumor dimensions were measured every 48 hours. Tumor volume was calculated using the following formula: volume=length×width^2×0.52. In accordance with the methods disclosed in Example 2, a murine subcutaneous xenograft model of human melanoma was prepared and used to test the effect of once daily oral TAK-875 on the growth of established melanoma tumors in vivo. Animals were treated daily for 14 days with either a control solution or an oral solution of TAK-875 (100 mg/kg/day) from the time their tumor volume reached 200 mm^3. […] Most importantly the change in tumor volume from start of drug treatment to completion of 14 days of treatment, was 77% lower in the TAK-875 group compared to placebo (P=0.04, FIG. 3G).
# [8] = tested on: IMR-32 neuroblastoma cell line; assay: Cell viability assay (Cell Counting Kit-8), Example 5; type: cell-based, human; conditions: DHA 0-250 μM, TAK-875 0-0.4 μM, 3 and 6 days
# Method: as §6, §7
# [9] = tested on: SK-NAS neuroblastoma cell line; assay: as above; type: cell-based, human; conditions: DHA 0-250 μM, TAK-875 0-0.4 μM, 3 and 6 days
# Method: as §6, §7
# [10] = tested on: SK-NSH neuroblastoma cell line; assay: as above; type: cell-based, human; conditions: DHA 0-250 μM, TAK-875 0-0.4 μM, 3 and 6 days
# Method: as §6, §7
# [11] = tested on: ShSY5Y neuroblastoma cell line; assay: as above; type: cell-based, human; conditions: DHA 0-250 μM, TAK-875 0-0.4 μM, 3 and 6 days
# Method: as §6, §7
# [12] = tested on: A2058 human melanoma cell line; assay: as above; type: cell-based; conditions: DHA 0-250 μM, TAK-875 0-0.4 μM, 6 days
# Method: as §6
# as §7, with “Following 72 hours (TAK-875) or 144 hours (DHA) of treatment, viable cells were quantified using an absorbance-based cell viability assay (Cell Counting Kit-8, Dojindo, Kumamoto, Japan).” left out
# [13] = tested on: A375 human melanoma cell line; assay: as above; type: cell-based; conditions: DHA 0-250 μM, TAK-875 0-0.4 μM, 6 days
# Method: as §6
# as §7, with “Following 72 hours (TAK-875) or 144 hours (DHA) of treatment, viable cells were quantified using an absorbance-based cell viability assay (Cell Counting Kit-8, Dojindo, Kumamoto, Japan).” left out
# [14] = tested on: SK-Mel 3 human melanoma cell line; assay: as above; type: cell-based; conditions: DHA 0-250 μM, TAK-875 0-0.4 μM, 6 days
# Method: as §6
# as §7, with “Following 72 hours (TAK-875) or 144 hours (DHA) of treatment, viable cells were quantified using an absorbance-based cell viability assay (Cell Counting Kit-8, Dojindo, Kumamoto, Japan).” left out
# [15] = tested on: human medullary thyroid carcinoma cell line (TT); assay: as above; type: cell-based; conditions: DHA 0-250 μM, TAK-875 0-0.4 μM, 3 and 6 days
# Method: as §6, §7
# [16] = tested on: human melanocytes (HMn); assay: as above; type: cell-based; conditions: HMn primary melanocytes; DHA 0-250 μM, TAK-875 0-0.4 μM; 3 and 6 days
# Method: as §6, §7
# [17] = tested on: human umbilical vein endothelial cells (HUVEC); assay: as above; type: cell-based; conditions: DHA 0-250 μM, TAK-875 0-0.4 μM, 3 and 6 days
# Method: as §6, §7
# [18] = tested on: malignant peripheral nerve sheath tumor (MPNST) (sNF94.3) cell line; assay: as above; type: cell-based; conditions: DHA 0-250 μM, TAK-875 0-0.4 μM, 3 and 6 days
# Method: as §6, §7
# [19] = tested on: breast cancer cell line MCF-7; assay: as above; type: cell-based, human; conditions: TAK-875, 6 days
# Method: as §6, with “treatment. […]” for “treatment.”
# [20] = tested on: breast cancer cell line MDA-MB-321; assay: as above; type: cell-based, human; conditions: TAK-875, 6 days
# Method: as §6, with “treatment. […]” for “treatment.”
# [21] = healthy human subjects, very high doses; cited from earlier work
# [22] = rat, in vivo; cited from earlier work
smiles,measurement,setting,value
"CC/C=C\C/C=C\C/C=C\C/C=C\C/C=C\C/C=C\CCC(=O)O [DHA, docosahexaenoic acid]",effect on growth / toxicity in control fibroblasts,[1],no growth inhibition
same,cell viability / toxicity in control cell line,[2],Little to no effect; also recorded: little effect; also recorded: Toxicity was observed in the control Hs27 cell line at high concentrations
Cc1cc(OCCCS(C)(=O)=O)cc(C)c1-c1cccc(COc2ccc3c(c2)OC[C@H]3CC(=O)O)c1 [TAK-875],effect on growth / viable cell count (percent of control),[3],robust and selective cytotoxic effect
same,effect on growth / viable cell count (percent of control),[4],robust and selective cytotoxic effect
same,effect on growth / viable cell count (percent of control),[5],robust and selective cytotoxic effect
same,effect on growth / toxicity in control fibroblasts,[1],did not influence the growth
same,effect on growth,[6],did not influence the growth
same,tumors smaller in volume versus placebo,"[7]; 14 days, from tumor volume 200 mm^3, P=0.03",62%
same,tumors smaller in weight versus placebo,"[7]; 14 days, from tumor volume 200 mm^3, P=0.07",46%
same,animal weights versus placebo,[7]; 14 days,not significantly different
same,"change in tumor volume from start of drug treatment to completion of 14 days, lower compared to placebo",[7]; P=0.04,77%
same,cell viability,[8],significantly attenuated viability
same,cell viability,[9],significantly attenuated viability
same,cell viability,[10],significantly attenuated viability
same,cell viability,[11],significantly attenuated viability
same,cell viability,[12],significant decrease in cell viability
same,cell viability,[13],significant decrease in cell viability
same,cell viability,[14],significant decrease in cell viability
same,cell viability / toxicity in control cell line,[2],Little to no effect; also recorded: little effect; also recorded: Toxicity was observed in the control Hs27 cell line at high concentrations
same,cell viability,[15],pronounced decrease
same,cell viability,[16],dramatic decrease in cell viability
same,cell viability,[17],minimal change in viability
same,cell viability,[18],pronounced effect
same,cell viability,[19],decrease in cell viability was observed at high concentrations
same,cell viability,[20],decrease in cell viability was observed at high concentrations
same,safety and tolerability,[21],safe and well tolerated
same,safety and tolerability,[22],safe and well tolerated
O=C(O)CCc1ccc(NCc2cccc(Oc3ccccc3)c2)cc1 [GW9508],effect on growth / viable cell count (percent of control),[3],profound inhibitory effect on the growth
same,effect on growth / viable cell count (percent of control),[4],profound inhibitory effect on the growth
same,effect on growth / viable cell count (percent of control),[5],profound inhibitory effect on the growth
same,effect on growth / toxicity in control fibroblasts,[1],not toxic
